Assay results reported in patent US11178868B2, “Alkynyl-substituted 3-phenylpyrrolidine-2,4-diones and use thereof as herbicides” (Bayer CropScience Aktiengesellschaft, priority 2015, dated 2021).

Key:
Assay type in all cases: in vivo
[1] = system: Alopecurus myosuroides; assay: Pre-emergence herbicidal effect; conditions: scored visually after 3 weeks
Source text: (§1) Seeds of monocotyledonous and dicotyledonous weed plants and crop plants are laid out in wood-fibre pots in sandy loam and covered with soil. The compounds according to the invention formulated in the form of wettable powders (WP) or as emulsion concentrates (EC) are then applied as aqueous suspension or emulsion at a water application rate of 600 to 800 I/ha (converted) with the addition of 0.2% wetting agent to the surface of the covering soil. After the treatment, the pots are placed in a greenhouse and kept under good growth conditions for the trial plants. The damage to the test plants is scored visually after a test period of 3 weeks by comparison with untreated controls (herbicidal activity in percent (%): 100% activity=the plants have died, 0% activity=like control plants).

[2] = system: Setaria viridis; assay: Pre-emergence herbicidal effect; conditions: scored visually after 3 weeks
Source text: as §1

[3] = system: Echinochloa crus-galli; assay: Pre-emergence herbicidal effect; conditions: scored visually after 3 weeks
Source text: as §1

[4] = system: Avena fatua; assay: Pre-emergence herbicidal effect; conditions: scored visually after 3 weeks
Source text: as §1

[5] = system: Alopecurus myosuroides; assay: Post-emergence herbicidal effect; conditions: assessed visually after about 3 weeks
Method: (§2) Seeds of monocotyledonous and dicotyledonous weed and crop plants are laid out in sandy loam in wood-fibre pots, covered with soil and cultivated in a greenhouse under good growth conditions. 2 to 3 weeks after sowing, the test plants are treated at the one-leaf stage. The compounds according to the invention, formulated in the form of wettable powders (WP) or as emulsion concentrates (EC), are then sprayed as aqueous suspension or emulsion at a water application rate of 600 to 800 I/ha (converted) with the addition of 0.2% of wetting agent onto the green parts of the plants. After the test plants have been left to stand in the greenhouse under optimal growth conditions for about 3 weeks, the action of the preparations is assessed visually in comparison to untreated controls (herbicidal action in percent (%): 100% activity=the plants have died, 0% activity=like control plants).

[6] = system: Echinochloa crus-galli; assay: Post-emergence herbicidal effect; conditions: assessed visually after about 3 weeks
Method: as §2

[7] = system: Avena fatua; assay: Post-emergence herbicidal effect; conditions: assessed visually after about 3 weeks
Method: as §2

[8] = system: Lolium multiflorum; assay: Pre-emergence herbicidal effect; conditions: scored visually after 3 weeks
Source text: as §1

[9] = system: Setaria viridis; assay: Post-emergence herbicidal effect; conditions: assessed visually after about 3 weeks
Method: as §2

[10] = system: Lolium multiflorum; assay: Post-emergence herbicidal effect; conditions: assessed visually after about 3 weeks
Method: as §2

| SMILES | Herbicidal effect against [%] ALOMY ([1]; 80 g a.i./ha) [%] | Herbicidal effect against [%] ALOMY ([1]; 320 g a.i./ha) [%] | Herbicidal effect against [%] SETVI ([2]; 80 g a.i./ha) [%] | Herbicidal effect against [%] SETVI ([2]; 320 g a.i./ha) [%] | Herbicidal effect against [%] ECHCG ([3]; 80 g a.i./ha) [%] | Herbicidal effect against [%] ECHCG ([3]; 320 g a.i./ha) [%] | Herbicidal effect against [%] AVEFA ([4]; 80 g a.i./ha) [%] | Herbicidal effect against [%] AVEFA ([4]; 320 g a.i./ha) [%] | Herbicidal effect against [%] ALOMY ([5]; 20 g a.i./ha) [%] | Herbicidal effect against [%] ALOMY ([5]; 80 g a.i./ha) [%] | Herbicidal effect against [%] ECHCG ([6]; 20 g a.i./ha) [%] | Herbicidal effect against [%] ECHCG ([6]; 80 g a.i./ha) [%] | Herbicidal effect against [%] AVEFA ([7]; 20 g a.i./ha) [%] | Herbicidal effect against [%] AVEFA ([7]; 80 g a.i./ha) [%] | Herbicidal effect against [%] LOLMU ([8]; 80 g a.i./ha) [%] | Herbicidal effect against [%] LOLMU ([8]; 320 g a.i./ha) [%] | Herbicidal effect against [%] SETVI ([9]; 20 g a.i./ha) [%] | Herbicidal effect against [%] SETVI ([9]; 80 g a.i./ha) [%] | Herbicidal effect against [%] LOLMU ([10]; 20 g a.i./ha) [%] | Herbicidal effect against [%] LOLMU ([10]; 80 g a.i./ha) [%] |
| --- | --- | --- | --- | --- | --- | --- | --- | --- | --- | --- | --- | --- | --- | --- | --- | --- | --- | --- | --- | --- |
| C#Cc1cc(CC)c(C2=C(O)C3(CCCC(OCCOC)C3)NC2=O)c(CC)c1 (centres unmarked) [Example D10] | 90 | 100 | 100 | 100 | 100 | 100 | 90 | 100 | 90 | 90 | 90 | 90 | 80 | 90 | – | – | – | – | – | – |
| CC#Cc1cc(CC)c(C2=C(OC(=O)C(C)C)C3(CCCC(OCC)C3)NC2=O)c(CC)c1 (centres unmarked) [Example P3] | 90 | 100 | 100 | 100 | 100 | 100 | – | 80 | – | – | – | 90 | – | – | 100 | 100 | – | – | – | – |
| C#Cc1cc(C)c(C2=C(OC(=O)OCC)C3(CCCC(OCCCC)C3)NC2=O)c(C)c1 (centres unmarked) [Example P5] | 80 | 100 | 90 | 100 | 90 | 100 | – | 80 | – | – | – | – | – | – | 90 | 100 | – | – | – | – |
| C#Cc1cc(C)c(C2=C(OC(=O)C(C)C)C3(CCCC(OCCCC)C3)NC2=O)c(C)c1 (centres unmarked) [Example P6] | – | 80 | – | 100 | – | 90 | – | – | – | – | – | – | – | – | – | 100 | – | – | – | – |
| CC#Cc1cc(CC)c(C2=C(OC(=O)C(C)C)C3(CCCC(OCCOC)C3)NC2=O)c(CC)c1 (centres unmarked) [Example P12] | 100 | 100 | 100 | 100 | 100 | 100 | 100 | 100 | 100 | 100 | 100 | 100 | 100 | 100 | 100 | 100 | 100 | 100 | 100 | 100 |
| CC#Cc1cc(C)c(C2=C(OC(=O)OC(C)C)C3(CCCC(OCCOC)C3)NC2=O)c(C)c1 (centres unmarked) [Example P14] | 100 | 100 | 100 | 100 | 100 | 100 | 100 | 100 | 100 | 100 | 100 | 100 | 90 | 90 | 100 | 100 | 90 | 100 | 100 | 100 |
